Laboratory results as given in patent US20250002493A1, “PYRIDONE COMPOUND AND PREPARATION METHOD THEREFOR, PHARMACEUTICAL COMPOSITION AND USE” (NANJING CHINA-AUSTRALIA INSTITUTE OF TRANSLATIONAL MEDICINE …, priority 2022, published 2025).
pIC50, pKi: −log10 of the molar value.

How the values were obtained:
[1] = tested on: PANC1 human pancreatic cancer; assay: WST-8 cell proliferation assay, PANC1; format: cell-based; conditions: PANC-1, 72 hours
Experimental: (§1) The effects of the compounds provided by the present invention on the proliferation of different cancer cell lines were tested using the WST-8 assay kit. This method is based on the reduction of WST-8 by dehydrogenase in live cells to form a highly water-soluble yellow Formazan dye. Cells were seeded in a 96-well plate and cultured with the test compounds at 37° C. under 5% CO2 for 72 hours. Afterwards, 10% (v/v) WST-8 was added, and the samples were incubated for an additional 2-3 hours. The absorbance of the samples was measured at 450 nm using a Tecan microplate reader, and the concentration of the compound that inhibited 50% of cell proliferation (IC50, nM) was calculated. The activity of the compounds provided by the present invention was determined in three cancer cell lines: MDA-MB-231 human breast cancer cells, SK-OV-3 human ovarian cancer cells, and PANC1 human pancreatic cancer.

[2] = tested on: SK-OV-3 human ovarian cancer cells; assay: WST-8 cell proliferation assay, SK-OV-3; format: cell-based; conditions: 72 hours, read-out: SKOV-3 IC50
Experimental: as §1

[3] = tested on: MDA-MB-231 human breast cancer cells; assay: WST-8 cell proliferation assay, MDA-MB-231; format: cell-based; conditions: 72 hours
Experimental: as §1

MDA-MB-231 cancer cells = assay: Inhibitor-induced apoptosis, flow cytometry with Annexin V and propidium iodide; format: cell-based, human; conditions: 3 hours
Experimental: After treating the cells with 10 nM and 100 nM concentrations of the compounds for 3 hours, the induction of apoptosis was analyzed using flow cytometry with Annexin V and propidium iodide staining.

[4] = target: BIR3 domain of human cIAP2 (residues 236-342) (Homo sapiens (Human), UniProt Q13489); assay: Fluorescence polarization competitive binding to cIAP2 BIR3; conditions: FP, peptide probe 5 nM, cIAP2 BIR3 10 nM, 1 hour room temperature
BIR3 domain of human cIAP2 (residues 236-342), sequence (Q13489 236-342): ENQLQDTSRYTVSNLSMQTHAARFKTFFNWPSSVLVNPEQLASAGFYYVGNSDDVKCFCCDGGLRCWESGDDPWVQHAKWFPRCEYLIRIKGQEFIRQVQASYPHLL
Experimental: (§2) The binding affinity of the compounds provided by the present invention to IAP proteins was determined using a fluorescence polarization method (Nikolovska-Colesak et al, Anal. Biochem. 2004, 332:261-73). The recombinant BIR3 domains of human XIAP (residues 238-358), human cIAP1 (residues 255-364) and human cIAP2 (residues 236-342) fusing GST-tags were expressed in E. coli and purified using glutathione agarose 4B affinity chromatography and gel filtration chromatography. A 5-Fam fluorescently modified peptide probe (AbuRPFK(5-Fam)-NH2) was used to test the competitive binding ability of the compounds to the BIR3 domains of XIAP, cIAP1 and cIAP2. The peptide probe (5 nM), XIAP BIR3 (30 nM) or cIAP1 BIR3 (5 nM) or cIAP2 BIR3 (10 nM), and serial diluted compounds were mixed in a test buffer (100 mM potassium phosphate pH 7.5, 100 μg/ml bovine gamma globulin, 0.02% sodium azide, and 1 mM DTT). After incubating the samples at room temperature for 1 hour, the fluorescence polarization values were read using a Tecan microplate reader (FP excitation wavelength 485 nm, […] wavelength 530 nm). The IC50 value was obtained by fitting the curve using nonlinear least square regression with the Graphpad Prism software. The inhibition constant Ki, values were calculated using the Equation Ki, [I]50/([L]50/Kd+[P]0/Kd+1).

[5] = target: BIR3 domain of human XIAP (residues 238-358) (Homo sapiens (Human), UniProt P98170); assay: Fluorescence polarization competitive binding to XIAP BIR3; conditions: FP, peptide probe 5 nM, XIAP BIR3 30 nM, 1 hour room temperature
BIR3 domain of human XIAP (residues 238-358), sequence (P98170 238-358): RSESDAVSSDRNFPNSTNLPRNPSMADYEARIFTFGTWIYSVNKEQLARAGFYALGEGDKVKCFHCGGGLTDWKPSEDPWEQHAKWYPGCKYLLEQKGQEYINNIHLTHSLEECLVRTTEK
Experimental: as §2

[6] = target: BIR3 domain of human cIAP1 (residues 255-364) (Homo sapiens (Human), UniProt Q13490); assay: Fluorescence polarization competitive binding to cIAP1 BIR3; conditions: FP, peptide probe 5 nM, cIAP1 BIR3 5 nM, 1 hour room temperature
BIR3 domain of human cIAP1 (residues 255-364), sequence (Q13490 255-364): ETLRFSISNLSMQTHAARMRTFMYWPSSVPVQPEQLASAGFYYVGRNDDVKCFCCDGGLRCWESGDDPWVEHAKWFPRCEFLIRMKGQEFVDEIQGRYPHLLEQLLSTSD
Experimental: as §2

Row | Compound | pIC50 [1] | pIC50 [2] | pIC50 [3] | pKi [4] | pKi [5] | pKi [6] | Proportion of apoptotic cells (MDA-MB-231 cancer cells; Drug concentration 10 nM) | Proportion of apoptotic cells (MDA-MB-231 cancer cells; Drug concentration 100 nM)
1 | CN[C@@H](C)C(=O)N[C@H](C(=O)N1CCc2cc(=O)n(Cc3ccc(F)cc3F)cc21)C1CCCCC1 [Compound I-2-4] | 7.12 | 7.89 | 8.10 | 8.49 | 7.14 | 8.89 | 32% | 45%
2 | [2H]C([2H])([2H])N[C@@H](C)C(=O)N[C@H](C(=O)N1CCc2cc(=O)n(Cc3ccc(F)cc3)cc21)C1CCCCC1 [Compound I-2-15] | 7.19 | 7.92 | 8.05 | 8.40 | 7.11 | 9.00 |  | 
3 | C[C@H](N)C(=O)N[C@H](C(=O)N1CCc2cc(=O)n(Cc3ccc(F)cc3F)cc21)C(C)(C)C [Compound I-2-34] |  |  |  | 8.82 | 7.62 | 8.96 |  | 
4 | [2H]C([2H])([2H])N[C@@H](C)C(=O)N[C@H](C(=O)N1CCc2cc(=O)n(Cc3ccc(F)cc3F)cc21)C(C)(C)C [Compound I-2-35] |  |  |  | 8.59 | 7.48 | 8.92 |  | 
5 | CCn1c2c(cc(Cc3ccc(F)cc3F)c1=O)N(C(=O)[C@@H](NC(=O)[C@H](C)NC)C(C)(C)C)CC2 [Compound I-3-6] |  |  |  | 8.80 | 7.91 | 9.10 |  | 
6 | CN[C@@H](C)C(=O)N[C@H](C(=O)N1CC(C)(C)c2c1cc(Cc1ccc(F)cc1F)c(=O)n2C)C(C)(C)C [Compound I-3-7] |  |  |  | 8.28 | 7.34 | 8.80 |  | 
7 | CN[C@@H](C)C(=O)N[C@H](C(=O)N1CCc2[nH]c(=O)c(Cc3ccc(F)cc3)cc21)C(C)(C)C [Compound I-4-3] |  |  |  | 8.72 | 8.09 | 9.00 |  | 
8 | CN[C@@H](C)C(=O)N[C@H]1CN(C(=O)CC(C)C)CC[C@H]2CC[C@@H](C(=O)NC(c3ccccc3)c3ccccc3)N2C1=O [SM-406, reference compound] | 6.62 | 7.40 | 7.48 | 8.24 | 7.60 |  | 6% | 34%

Continued, in another order:

Row | pIC50 [1] | pIC50 [2] | pIC50 [3] | pKi [4] | pKi [5] | pKi [6] | Compound | Proportion of apoptotic cells (MDA-MB-231 cancer cells; Drug concentration 10 nM) | Proportion of apoptotic cells (MDA-MB-231 cancer cells; Drug concentration 100 nM)
9 | 7.42 | 8.40 | 8.30 | 8.77 | 7.50 | 9.15 | CN[C@@H](C)C(=O)N[C@H](C(=O)N1CCc2cc(=O)n(Cc3ccc(F)cc3)cc21)C(C)(C)C [Compound I-2-11] | 35% | 48%
10 | 7.48 | 9.00 | 8.52 | 8.74 | 7.67 | 9.00 | CN[C@@H](C)C(=O)N[C@H](C(=O)N1CCc2cc(=O)n(Cc3ccc(F)cc3F)cc21)C(C)(C)C [Compound I-2-20] | 39% | 53%
11 | 7.47 | 8.70 | 8.52 | 8.82 | 7.68 | 9.10 | [2H]C([2H])([2H])N[C@@H](C)C(=O)N[C@H](C(=O)N1CCc2cc(=O)n(Cc3ccc(F)cc3F)cc21)C(C)(C)C [Compound I-2-22] | 38% | 52%
12 | 7.17 | 8.30 | 8.05 | 8.64 | 7.27 | 9.00 | CN[C@@H](C)C(=O)N[C@H](C(=O)N1CCc2cc(=O)n(Cc3ccc(F)cc3O)cc21)C(C)(C)C [Compound I-2-23] | 35% | 50%
13 | 7.05 | 8.15 | 7.68 | 8.16 | 7.15 | 8.85 | CN[C@@H](C)C(=O)N[C@H](C(=O)N1CC(C)(C)c2cc(=O)n(Cc3ccc(F)cc3F)cc21)C(C)(C)C [Compound I-2-26] | 32% | 47%
14 |  |  |  | 8.68 | 8.15 | 8.89 | CN[C@@H](C)C(=O)N[C@H](C(=O)N1CCc2c1cc(Cc1ccc(F)cc1F)c(=O)n2CC(F)(F)F)C(C)(C)C [Compound I-3-8] |  | 
